In BindingDB's records for doi:10.1016/S0960-894X(97)00421-6 (1997):

The compounds below were run against Growth hormone secretagogue receptor type 1 (Rattus norvegicus) (UniProt O08725) (assay: Ability to release growth hormone in a rat pituitary cell assay).
Sequence of Growth hormone secretagogue receptor type 1 (Rattus norvegicus) (O08725 whole entry, looked up): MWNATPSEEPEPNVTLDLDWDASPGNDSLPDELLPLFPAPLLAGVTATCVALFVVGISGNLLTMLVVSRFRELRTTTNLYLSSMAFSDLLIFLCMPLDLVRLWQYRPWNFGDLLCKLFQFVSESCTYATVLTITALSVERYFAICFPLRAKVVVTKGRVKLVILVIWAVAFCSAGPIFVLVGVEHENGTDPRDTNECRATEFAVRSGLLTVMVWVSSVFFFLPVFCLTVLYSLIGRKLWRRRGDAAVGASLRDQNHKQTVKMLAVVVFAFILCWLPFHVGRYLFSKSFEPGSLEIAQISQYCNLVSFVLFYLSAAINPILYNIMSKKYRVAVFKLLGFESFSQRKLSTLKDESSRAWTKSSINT

| EC50 [nM] | Compound |
| --- | --- |
| 2.3 | CC(C)(N)C(=O)N[C@H](CCCc1ccccc1)C(=O)N1CCC2(CC1)C[C@H](CC(=O)O)c1ccccc12 |
| 6.6 | CCOC(=O)[C@@H]1CC2(CCN(C(=O)[C@@H](COCc3ccccc3)NC(=O)C(C)(C)N)CC2)c2ccccc21 |
| 1.3 | CCOC(=O)CCC1CC2(CCN(C(=O)[C@@H](CCCc3ccccc3)NC(=O)C(C)(C)N)CC2)c2ccccc21 (stereo partly drawn) |
| 2.1 | CC(C)(N)C(=O)N[C@H](CCCc1ccccc1)C(=O)N1CCC2(CC1)C[C@H](C(=O)O)c1ccccc12 |
| 10 | CC(C)(N)C(=O)N[C@@H](CCCc1ccccc1)C(=O)N1CCC2(CCc3ccccc32)CC1 |
| 2.5 | CC(C)(N)C(=O)N[C@H](CCCc1ccccc1)C(=O)N1CCC2(CC1)C[C@@H](C(=O)O)c1ccccc12 |
| 2 | CCOC(=O)[C@@H]1CC2(CCN(C(=O)[C@@H](CCCc3ccccc3)NC(=O)C(C)(C)N)CC2)c2ccccc21 |
| 2.5 | CC(C)(N)C(=O)N[C@H](CCCc1ccccc1)C(=O)N1CCC2(CC1)CC(CCC(=O)O)c1ccccc12 (stereo partly drawn) |
| 0.8 | CCOC(=O)C[C@@H]1CC2(CCN(C(=O)[C@@H](CCCc3ccccc3)NC(=O)C(C)(C)N)CC2)c2ccccc21 |
| 2.9 | CCOC(=O)[C@H]1CC2(CCN(C(=O)[C@@H](COCc3ccccc3)NC(=O)C(C)(C)N)CC2)c2ccccc21 |
| 1 | CCOC(=O)[C@H]1CC2(CCN(C(=O)[C@@H](CCCc3ccccc3)NC(=O)C(C)(C)N)CC2)c2ccccc21 |
| 1.9 | CC(C)(N)C(=O)N[C@H](CCCc1ccccc1)C(=O)N1CCC2(CC1)C[C@@H](CC(=O)O)c1ccccc12 |
| 17 | CC(C)(N)C(=O)N[C@H](COCc1ccccc1)C(=O)N1CCC2(CCc3ccccc32)CC1 |
| 5.8 | CC(C)(N)C(=O)N[C@H](Cc1c[nH]c2ccccc12)C(=O)N1CCC2(CC1)C[C@@H](CC(=O)O)c1ccccc12 |
| 28 | CCOC(=O)C[C@H]1CC2(CCN(C(=O)[C@@H](Cc3c[nH]c4ccccc34)NC(=O)C(C)(C)N)CC2)c2ccccc21 |
| 7 | CCOC(=O)C[C@@H]1CC2(CCN(C(=O)[C@@H](Cc3c[nH]c4ccccc34)NC(=O)C(C)(C)N)CC2)c2ccccc21 |
| 6 | CCOC(=O)[C@H]1CC2(CCN(C(=O)[C@@H](Cc3c[nH]c4ccccc34)NC(=O)C(C)(C)N)CC2)c2ccccc21 |
| 4.4 | CC(C)(N)C(=O)N[C@H](COCc1ccccc1)C(=O)N1CCC2(CC1)C[C@H](C(=O)O)c1ccccc12 |
| 8.3 | CCOC(=O)[C@@H]1CC2(CCN(C(=O)[C@@H](Cc3c[nH]c4ccccc34)NC(=O)C(C)(C)N)CC2)c2ccccc21 |
| 1 | CCOC(=O)C[C@H]1CC2(CCN(C(=O)[C@@H](CCCc3ccccc3)NC(=O)C(C)(C)N)CC2)c2ccccc21 |
| 60 | CC(C)(N)CC(=O)N[C@@H]1CCc2ccccc2N(Cc2ccc(-c3ccccc3-c3nnn[nH]3)cc2)C1=O [3-Amino-3-methyl-N-{2-oxo-1-[2'-(1H-tetrazol-5-yl)-biphenyl-4-ylmethyl]-2,3,4,5-tetrahydro-1H-benzo[b]azepin-3-yl}-butyramide] |
| 14 | CC(C)(N)C(=O)N[C@H](Cc1c[nH]c2ccccc12)C(=O)N1CCC2(CCc3ccccc32)CC1 [L-162752] |
| 3 | C[C@@H](O)CNC(C)(C)CC(=O)N[C@@H]1CCc2ccccc2N(Cc2ccc(-c3ccccc3-c3nnn[nH]3)cc2)C1=O [L-692585] |
